Assay results reported in publication PMC8590286, “A novel CD123-targeted therapeutic peptide loaded by micellar delivery system combats refractory acute myeloid leukemia” (Journal of Hematology & Oncology, 2021).
Counter-ions that a name gives are not always drawn.

Tests used:
AE & CKIT^D816V mice = test: Survival experiments of Ara-C or HHT in AE & CKIT^D816V AML mice; type: in vivo, mouse; settings: for median survival of AML mice treated with HHT: 250 μg/kg i.p. every 2 days from day 9, n=8; for median survival of AML mice treated with Ara-C: 25, 50 and 100 mg/kg i.p. daily for 4 days from day 9, versus Con, n=9
Protocol: The regimen of cytarabine hydrochloride (Ara-C): On day 9 after AE & CKIT^D816V cells implantation, the mice were randomly divided into 4 groups (n=9) including Con (5% glucose), 25, 50 and 100 mg/kg Ara-C. All mice were treated with daily intraperitoneal (i.p.) injections for 4 days and stopped. The survival of the mice was recorded every day.
The regimen of homoharringtonine (HHT): On day 9 after AE & CKIT^D816V cells implantation, the mice were randomly divided into 2 groups (n=8) and i.p. injected with 5% glucose and 250 μg/kg HHT. The administration was given every 2 days. The survival of the mice was recorded every day.
Fig. S7. Therapeutic efficacy of Ara-C or HHT in AE & CKIT^D816V mice. (A) The median survival of AML mice treated with Ara-C was not prolonged compared with the Con group (n=9). […] On day 9 after AE & CKIT^D816V cells implantation, AML mice were treated with i.p. injection of 5% glucose, Ara-C (25, 50 and 100 mg/kg) or HHT (250 μg/kg) as the regimens described.

[1] = test system: CD123^+ AML cell line MOLM-13 cells; test: Flow cytometry binding of FITC-labeled peptide/micelles to MOLM-13 cells; type: cell-based, human; settings: 0.1 and 0.5 μM, 0.5 h
Protocol: Fig. 1 A Affinity of ^mPO-6 to MOLM-13 cells incubated at 0.1 and 0.5 μM for 0.5 h. B Images of ^mPO-6 bound with MOLM-13 cells at 0.1 μM for 0.5 h obtained from the laser confocal microscopy. C Effects of ^mPO-6 on the cell viability in the presence of IL-3 (n = 4). D and E Effects of ^mPO-6 on the cell viability of the primary AML blasts.
(§1) Fig. S1. Affinity of PO-6 and ^mPO-6 to different leukemia cells. The MOLM-13, K562 or HL-60 cells was incubated with PO-6 or ^mPO-6 at 0.1 and 0.5 μM for 0.5 h. Resulting cells were collected and subjected to C6 Accuri® flow cytometer.
(§2) MOLM-13, HL-60 and K562 cells of 4×10^5/mL were incubated with FITC-labeled PO-6 or ^mPO-6 at 0.1 μM and 0.5 μM for 0.5 h. After twice washed with PBS, subjected to C6 Accuri® flow cytometer (Accuri Cytometers, Ann Arbor, MI) and 1×10^4 cells were collected. Acquired data were analyzed by CFlow Plus software.

[2] = test system: CD123^− AML cell line HL-60; test: Flow cytometry binding of FITC-labeled peptide to HL-60 cells; type: cell-based, human; settings: 0.1 and 0.5 μM, 0.5 h
Protocol: as §1, §2

[3] = test system: chronic myeloid leukemia cell line K562 cells; test: Flow cytometry binding of FITC-labeled peptide to K562 cells; type: cell-based, human; settings: 0.1 and 0.5 μM, 0.5 h
Protocol: as §1, §2

COC(=O)C[C@](O)(CCCC(C)(C)O)C(=O)O[C@@H]1C(OC)=C[C@]23CCCN2CCc2cc4c(cc2[C@H]13)OCO4 [homoharringtonine]
median survival of AML mice treated with HHT (AE & CKIT^D816V mice): did not respond
median survival of AML mice treated with HHT (AE & CKIT^D816V mice; listed as HHT): did not prolong the AML mice median survival significantly

DDDYDTRAQGTDIGCDFRRISDDD [PO-6]
binding to MOLM-13 cells [1]: effectively bind
binding to HL-60 cells [2]: weakly bind
binding to K562 cells [3]: weakly bind

Nc1ccn([C@@H]2O[C@H](CO)[C@@H](O)[C@@H]2O)c(=O)n1 [cytarabine hydrochloride]
median survival of AML mice treated with Ara-C (AE & CKIT^D816V mice): did not respond
median survival of AML mice treated with Ara-C (AE & CKIT^D816V mice; listed as Ara-C): not prolonged
